What was measured:
Assay type in all cases: functional
SNB-75 = test: Cytotoxicity against human SNB75 cells assessed as cell growth at 10^-5 M after 48 hrs by SRB assay; conditions: SNB-75, 48 h, read-out: Activity
MDA-MB-468 = test: Cytotoxicity against human MDA-MB-468 cells assessed as cell growth at 10^-5 M after 48 hrs by SRB assay; conditions: MDA-MB-468, 48 h, read-out: Activity
BT-549 = test: Cytotoxicity against human BT549 cells assessed as cell growth at 10^-5 M after 48 hrs by SRB assay; conditions: BT-549, 48 h, read-out: Activity
[1] = Cytotoxicity against human Hs578T cells assessed as cell growth at 10^-5 M after 48 hrs by SRB assay; conditions: Hs-578T, read-out: Activity
MDA-MB-231 = test: Cytotoxicity against human MDA-MB-231 cells assessed as cell growth at 10^-5 M after 48 hrs by SRB assay; conditions: MDA-MB-231, 48 h, read-out: Activity
MCF7 = test: Cytotoxicity against human MCF7 cells assessed as cell growth at 10^-5 M after 48 hrs by SRB assay; conditions: MCF7, 48 h, read-out: Activity
DU-145 = test: Cytotoxicity against human DU145 cells assessed as cell growth at 10^-5 M after 48 hrs by SRB assay; conditions: DU-145, 48 h, read-out: Activity
TK-10 = test: Cytotoxicity against human TK10 cells assessed as cell growth at 10^-5 M after 48 hrs by SRB assay; conditions: TK-10, 48 h, read-out: Activity
RXF 393 = test: Cytotoxicity against human RXF393 cells assessed as cell growth at 10^-5 M after 48 hrs by SRB assay; conditions: RXF 393, 48 h, read-out: Activity
SN12C = test: Cytotoxicity against human SN12C cells assessed as cell growth at 10^-5 M after 48 hrs by SRB assay; conditions: read-out: Activity
ACHN = test: Cytotoxicity against human ACHN cells assessed as cell growth at 10^-5 M after 48 hrs by SRB assay; conditions: read-out: Activity
A498 = test: Cytotoxicity against human A498 cells assessed as cell growth at 10^-5 M after 48 hrs by SRB assay; conditions: A498, 48 h, read-out: Activity
OVCAR-8 = test: Cytotoxicity against human OVCAR8 cells assessed as cell growth at 10^-5 M after 48 hrs by SRB assay; conditions: OVCAR-8, 48 h, read-out: Activity
[2] = Cytotoxicity against human NCI-ADR-RES cells assessed as cell growth at 10^-5 M after 48 hrs by SRB assay; conditions: read-out: Activity
[3] = Cytotoxicity against human OVCAR4 cells assessed as cell growth at 10^-5 M after 48 hrs by SRB assay; conditions: OVCAR-4, 48 h, read-out: Activity
IGROV-1 = test: Cytotoxicity against human IGROV1 cells assessed as cell growth at 10^-5 M after 48 hrs by SRB assay; conditions: IGROV-1, 48 h, read-out: Activity
M14 = test: Cytotoxicity against human M14 cells assessed as cell growth at 10^-5 M after 48 hrs by SRB assay; conditions: M14, 48 h, read-out: Activity
MDA-MB-435 = test: Cytotoxicity against human MDA-MB-435 cells assessed as cell growth at 10^-5 M after 48 hrs by SRB assay; conditions: MDA-MB-435, 48 h, read-out: Activity
U-251 = test: Cytotoxicity against human U251 cells assessed as cell growth at 10^-5 M after 48 hrs by SRB assay; conditions: U-251, 48 h, read-out: Activity
SNB-19 = test: Cytotoxicity against human SNB19 cells assessed as cell growth at 10^-5 M after 48 hrs by SRB assay; conditions: SNB-19, 48 h, read-out: Activity
SF-295 = test: Cytotoxicity against human SF295 cells assessed as cell growth at 10^-5 M after 48 hrs by SRB assay; conditions: SF-295, 48 h, read-out: Activity
SW-620 = test: Cytotoxicity against human SW620 cells assessed as cell growth at 10^-5 M after 48 hrs by SRB assay; conditions: SW-620, 48 h, read-out: Activity
KM12 = test: Cytotoxicity against human KM12 cells assessed as cell growth at 10^-5 M after 48 hrs by SRB assay; conditions: KM12, 48 h, read-out: Activity
HT-29 = test: Cytotoxicity against human HT-29 cells assessed as cell growth at 10^-5 M after 48 hrs by SRB assay; conditions: HT-29, 48 h, read-out: Activity
HCT-116 = test: Cytotoxicity against human HCT116 cells assessed as cell growth at 10^-5 M after 48 hrs by SRB assay; conditions: HCT-116, 48 h, read-out: Activity
NCI-H522 = test: Cytotoxicity against human NCI-H522 cells assessed as cell growth at 10^-5 M after 48 hrs by SRB assay; conditions: NCI-H522, 48 h, read-out: Activity
NCI-H460 = test: Cytotoxicity against human NCI-H460 cells assessed as cell growth at 10^-5 M after 48 hrs by SRB assay; conditions: NCI-H460, 48 h, read-out: Activity
NCI-H322M = test: Cytotoxicity against human NCI-H322M cells assessed as cell growth at 10^-5 M after 48 hrs by SRB assay; conditions: read-out: Activity
NCI-H23 = test: Cytotoxicity against human NCI-H23 cells assessed as cell growth at 10^-5 M after 48 hrs by SRB assay; conditions: NCI-H23, 48 h, read-out: Activity
NCI-H226 = test: Cytotoxicity against human NCI-H226 cells assessed as cell growth at 10^-5 M after 48 hrs by SRB assay; conditions: NCI-H226, 48 h, read-out: Activity
HOP-92 = test: Cytotoxicity against human HOP92 cells assessed as cell growth at 10^-5 M after 48 hrs by SRB assay; conditions: HOP-92, 48 h, read-out: Activity
A549 = test: Cytotoxicity against human A549 cells assessed as cell growth at 10^-5 M after 48 hrs by SRB assay; conditions: A549, 48 h, read-out: Activity
HOP-62 = test: Cytotoxicity against human HOP62 cells assessed as cell growth at 10^-5 M after 48 hrs by SRB assay; conditions: HOP-62, 48 h, read-out: Activity
SR = test: Cytotoxicity against human SR cells assessed as cell growth at 10^-5 M after 48 hrs by SRB assay; conditions: read-out: Activity
RPMI-8226 = test: Cytotoxicity against human RPMI8226 cells assessed as cell growth at 10^-5 M after 48 hrs by SRB assay; conditions: RPMI-8226, 48 h, read-out: Activity
MOLT-4 = test: Cytotoxicity against human MOLT4 cells assessed as cell growth at 10^-5 M after 48 hrs by SRB assay; conditions: MOLT-4, 48 h, read-out: Activity
CCRF-CEM = test: Cytotoxicity against human CCRF-CEM cells assessed as cell growth at 10^-5 M after 48 hrs by SRB assay; conditions: read-out: Activity

SMILES | growth at 10 µM (SNB-75) | growth at 10 µM (MDA-MB-468) | growth at 10 µM (BT-549) | growth at 10 µM [1] | growth at 10 µM (MDA-MB-231) | growth at 10 µM (MCF7) | growth at 10 µM (DU-145) | growth at 10 µM (TK-10) | growth at 10 µM (RXF 393) | growth at 10 µM (SN12C) | growth at 10 µM (ACHN) | growth at 10 µM (A498) | growth at 10 µM (OVCAR-8) | growth at 10 µM [2] | growth at 10 µM [3] | growth at 10 µM (IGROV-1) | growth at 10 µM (M14) | growth at 10 µM (MDA-MB-435) | growth at 10 µM (U-251) | growth at 10 µM (SNB-19) | also measured
C=CCn1c(C)nc2ccc(Nc3nc(Nc4ccc5nc(C)n(CC=C)c5c4)c4ccccc4n3)cc21 | -95.2% | -99% | -86% | -52% | -100% | -100% | -98% | -97% | -93% | -100% | -99% | -91% | -76% | -25% | -100% | -87% | -95% | -84% | -100% | -69% | growth at 10 µM (SF-295): -80%; growth at 10 µM (SW-620): -91%; growth at 10 µM (KM12): -94%; growth at 10 µM (HT-29): -96.7%; growth at 10 µM (HCT-116): -100%; growth at 10 µM (NCI-H522): -94%; growth at 10 µM (NCI-H460): -74%; growth at 10 µM (NCI-H322M): -88%; growth at 10 µM (NCI-H23): -89%; growth at 10 µM (NCI-H226): -87%; growth at 10 µM (HOP-92): -80%; growth at 10 µM (A549): -90%; growth at 10 µM (HOP-62): -100%; growth at 10 µM (SR): -57.2%; growth at 10 µM (RPMI-8226): -43.3%; growth at 10 µM (MOLT-4): -45.5%; growth at 10 µM (CCRF-CEM): -20.8%
C=CCn1c(C)nc2cc(Nc3nc(Nc4ccc5nc(C)n(CC=C)c5c4)c4ccccc4n3)ccc21 | -96.7% | -85% | -96% | -48.1% | -89% | -89.3% | -100% | -100% | -97.4% | -76% | -100% | -100% | -40.9% | -46% | -100% | -93.8% | -88% | -92% | -90.7% | -75% | growth at 10 µM (SF-295): -100%; growth at 10 µM (SW-620): -76.2%; growth at 10 µM (KM12): -100%; growth at 10 µM (HT-29): -71%; growth at 10 µM (HCT-116): -96.5%; growth at 10 µM (NCI-H522): -94.8%; growth at 10 µM (NCI-H460): -84.2%; growth at 10 µM (NCI-H322M): -100%; growth at 10 µM (NCI-H23): -69.2%; growth at 10 µM (NCI-H226): -47.1%; growth at 10 µM (HOP-92): -97%; growth at 10 µM (A549): -67.1%; growth at 10 µM (HOP-62): -99.5%; growth at 10 µM (SR): -44.2%; growth at 10 µM (RPMI-8226): -41%; growth at 10 µM (MOLT-4): -29%; growth at 10 µM (CCRF-CEM): -29%

Source: ChEMBL document CHEMBL3112450, “Synthesis and in vitro antitumor evaluation of primary amine substituted quinazoline linked benzimidazole” (Bioorg Med Chem Lett, 2014)
